Measured values taken from US20040224379A1, “Method and apparatus for detection of toxic substances in a sample” (priority 2000, published 2004).

System: Tetramitus flagellates
Experiment: Microscopic observations of swimming behavior and morphology of Tetramitus flagellates during exposure
Assay type: cell-based, Tetramitus rostratus
Conditions: 10 μg/mL

SMILES: O=[N+]([O-])c1cc[n+]([O-])c2ccccc12 [4-nitroquinoline-n-oxide]
- Swarming Behavior (exposure time 0.5 Hours): Normal
- Swimming Velocity (% Slow) (exposure time 0.5 Hours, cell wraps: 10-20% Slow): 10-20%
- Spinner Frequency (exposure time 0.5 Hours, cells rotating in a circular pattern): <1%
- Appearance of Larger Morphs (exposure time 0.5 Hours, larger cells with abnormally-formed rostrum and large vacuoles): 1-5%
- Appearance of Larger Morphs (exposure time 0.9 Hours): 5-10%
- Spinner Frequency (exposure time 0.9 Hours): ˜5%
- Swarming Behavior (exposure time 0.9 Hours): Delayed
- Swimming Velocity (% Slow) (exposure time 0.9 Hours, cell wraps: 50-70% Slow): 50-70%
- Appearance of Larger Morphs (exposure time 1.6 Hours): 10-20%
- Spinner Frequency (exposure time 1.6 Hours): 5-10%
- Swimming Velocity (% Slow) (exposure time 1.6 Hours, cell wraps: 100% Slow): 100%
- Appearance of Larger Morphs (exposure time 4.5 Hours): 50%
- Spinner Frequency (exposure time 4.5 Hours): 20%
- Swimming Velocity (% Slow) (exposure time 4.5 Hours, cell wraps: 100% Slow): 100%
- Spinner Frequency (exposure time 8.7 Hours): 70-90%
- Swimming Velocity (exposure time 8.7 Hours): Very Slow
- Swarming Behavior (exposure time 8.7 Hours, cell wraps over rows: No Swarming): No
- Appearance of Larger Morphs (exposure time 8.7 Hours, cell wraps: 100% Rounded cells with large vacuoles): 100% Rounded cells
